Test results published in ChEMBL document CHEMBL3885881, “DrugMatrix”.

Organism: Rattus norvegicus
Assay: DrugMatrix - Regimen: Daily Repeat
Format: toxicity, organism-based, Sprague-Dawley
Parameters: regimen Daily Repeat, gender Male, age 6-8 weeks
Settings: in vivo, po, route oral GAVAGE, […]; for ABSOLUTE BASOPHIL / ABSOLUTE EOSINOPHIL / ABSOLUTE LYMPHOCYTE / ABSOLUTE MONOCYTE / ABSOLUTE SEGMENTED NEUTROPHIL / BASOPHIL / EOSINOPHIL / ERYTHROCYTE COUNT / HEMATOCRIT / LEUKOCYTE COUNT / LYMPHOCYTE / MEAN CORPUSCULAR HEMOGLOBIN / MEAN CORPUSCULAR HEMOGLOBIN CONCENTRATION / MEAN CORPUSCULAR VOLUME / NEUTROPHIL / NUCLEATED RED BLOOD CELLS / PLATELET COUNT / HEMOGLOBIN: tissue Blood; for ALANINE AMINOTRANSFERASE / ALBUMIN / ALKALINE PHOSPHATASE / ASPARTATE AMINOTRANSFERASE / BLOOD UREA NITROGEN / CARBON DIOXIDE / CHLORIDE / CHOLESTEROL / CREATINE PHOSPHOKINASE / CREATININE / LACTATE DEHYDROGENASE / LIPASE / PHOSPHORUS / POTASSIUM / SODIUM / TOTAL BILIRUBIN / URIC ACID: tissue Plasma
[1] = 0 mg/kg, 72 h, dose level Control, time 3 day
[2] = 0 mg/kg, 120 h, dose level Control, time 5 day
[3] = 0 mg/kg, dose level Control, time 28 day
[4] = 10 mg/kg, 72 h, dose level High, time 3 day
[5] = 10 mg/kg, 120 h, dose level High, time 5 day

With O=C(O)Cc1ccccc1Nc1c(Cl)cccc1Cl [DICLOFENAC] the “ABSOLUTE BASOPHIL” value [1] was 0 CELLS/uL, the “ABSOLUTE EOSINOPHIL” value [1] was 0 CELLS/uL and the “ABSOLUTE LYMPHOCYTE” value [1] was 8493 CELLS/uL. The “ABSOLUTE MONOCYTE” value [1] was 127 CELLS/uL, the “ABSOLUTE SEGMENTED NEUTROPHIL” value [1] was 896.67 CELLS/uL and the BASOPHIL [1] was 0%. The EOSINOPHIL [1] was 0%, the “ERYTHROCYTE COUNT” value [1] was 5.53 x10E6/uL and the HEMATOCRIT [1] was 34.07%. The “LEUKOCYTE COUNT” value [1] was 9.52 x10E3/uL, the LYMPHOCYTE [1] was 89.17% and the “MEAN CORPUSCULAR HEMOGLOBIN” value [1] was 24.07 pg. The “MEAN CORPUSCULAR HEMOGLOBIN CONCENTRATION” value [1] was 39.03 G/DL, the “MEAN CORPUSCULAR VOLUME” value [1] was 61.62 fL and the NEUTROPHIL [1] was 9.5%. The “NUCLEATED RED BLOOD CELLS” value [1] was 0.17 /100WBC, the “PLATELET COUNT” value [1] was 1054.17 x10E3/uL and the “ALANINE AMINOTRANSFERASE” value [1] was 77.67 u/L. The ALBUMIN [1] was 4.08 G/DL, the “ALKALINE PHOSPHATASE” value [1] was 404.5 u/L and the “ASPARTATE AMINOTRANSFERASE” value [1] was 83.17 u/L. The “BLOOD UREA NITROGEN” value [1] was 14.33 mg/dL, the “CARBON DIOXIDE” value [1] was 33.17 mmol/L and the CHLORIDE [1] was 101 MEQ/L. For the same compound, the CHOLESTEROL [1] was 76.33 mg/dL, the “CREATINE PHOSPHOKINASE” value [1] was 184.5 u/L and the CREATININE [1] was 0.13 mg/dL. For the same compound, the “LACTATE DEHYDROGENASE” value [1] was 130.33 u/L, the LIPASE [1] was 11 u/L and the PHOSPHORUS [1] was 9.27 mg/dL. The POTASSIUM [1] was 6.26 MEQ/L, the SODIUM [1] was 143.57 MEQ/L and the “TOTAL BILIRUBIN” value [1] was 0.18 mg/dL. For the same compound, the “URIC ACID” value [1] was 1.38 mg/dL, the “ABSOLUTE BASOPHIL” value [2] was 0 CELLS/uL and the “ABSOLUTE EOSINOPHIL” value [2] was 0 CELLS/uL. The “ABSOLUTE LYMPHOCYTE” value [2] was 8546.17 CELLS/uL, the “ABSOLUTE MONOCYTE” value [2] was 49.5 CELLS/uL and the “ABSOLUTE SEGMENTED NEUTROPHIL” value [2] was 554.33 CELLS/uL. For the same compound, the “NUCLEATED RED BLOOD CELLS” value [2] was 0.17 /100WBC, the “CARBON DIOXIDE” value [2] was 33.17 mmol/L and the CREATININE [2] was 0.18 mg/dL. For the same compound, the “LACTATE DEHYDROGENASE” value [2] was 111.5 u/L, the LIPASE [2] was 9.5 u/L and the “URIC ACID” value [2] was 0.78 mg/dL. The BASOPHIL [3] was 0.42%, the EOSINOPHIL [3] was 0.58% and the “ERYTHROCYTE COUNT” value [3] was 8.06 x10E6/uL. For the same compound, the HEMATOCRIT [3] was 48.44%, the HEMOGLOBIN [3] was 16.34 G/DL and the “LEUKOCYTE COUNT” value [3] was 13.04 x10E3/uL. For the same compound, the LYMPHOCYTE [3] was 85.12%, the “MEAN CORPUSCULAR HEMOGLOBIN” value [3] was 20.26 pg and the “MEAN CORPUSCULAR HEMOGLOBIN CONCENTRATION” value [3] was 33.74 G/DL. The “MEAN CORPUSCULAR VOLUME” value [3] was 60.1 fL, the NEUTROPHIL [3] was 11.28% and the “PLATELET COUNT” value [3] was 1226 x10E3/uL. The “ALANINE AMINOTRANSFERASE” value [3] was 28.6 u/L, the ALBUMIN [3] was 3.94 G/DL and the “ALKALINE PHOSPHATASE” value [3] was 254.6 u/L. The “ASPARTATE AMINOTRANSFERASE” value [3] was 67.8 u/L, the “BLOOD UREA NITROGEN” value [3] was 10.4 mg/dL and the CHLORIDE [3] was 104.6 MEQ/L. The CHOLESTEROL [3] was 57.6 mg/dL, the “CREATINE PHOSPHOKINASE” value [3] was 224.8 u/L and the CREATININE [3] was 0.4 mg/dL. It also gave a PHOSPHORUS [3] of 10.66 mg/dL, a POTASSIUM [3] of 6.58 MEQ/L and an SODIUM [3] of 148.6 MEQ/L. For the same compound, the “TOTAL BILIRUBIN” value [3] was 0.24 mg/dL, the “ABSOLUTE BASOPHIL” value [4] was 0 CELLS/uL and the “ABSOLUTE EOSINOPHIL” value [4] was 0 CELLS/uL. For the same compound, the “ABSOLUTE LYMPHOCYTE” value [4] was 9500.33 CELLS/uL, the “ABSOLUTE MONOCYTE” value [4] was 68 CELLS/uL and the “ABSOLUTE SEGMENTED NEUTROPHIL” value [4] was 1065 CELLS/uL. For the same compound, the BASOPHIL [4] was 0%, the EOSINOPHIL [4] was 0% and the “ERYTHROCYTE COUNT” value [4] was 5.04 x10E6/uL. For the same compound, the HEMATOCRIT [4] was 30.83%, the HEMOGLOBIN [4] was 12.23 G/DL and the “LEUKOCYTE COUNT” value [4] was 10.63 x10E3/uL. The LYMPHOCYTE [4] was 90%, the “MEAN CORPUSCULAR HEMOGLOBIN” value [4] was 24.3 pg and the “MEAN CORPUSCULAR HEMOGLOBIN CONCENTRATION” value [4] was 39.67 G/DL. The “MEAN CORPUSCULAR VOLUME” value [4] was 61.23 fL, the NEUTROPHIL [4] was 9% and the “NUCLEATED RED BLOOD CELLS” value [4] was 0 /100WBC. The “PLATELET COUNT” value [4] was 988.67 x10E3/uL, the “ALANINE AMINOTRANSFERASE” value [4] was 55.67 u/L and the ALBUMIN [4] was 3.43 G/DL. The “ALKALINE PHOSPHATASE” value [4] was 322 u/L, the “ASPARTATE AMINOTRANSFERASE” value [4] was 70.67 u/L and the “BLOOD UREA NITROGEN” value [4] was 11.67 mg/dL. The “CARBON DIOXIDE” value [4] was 33.33 mmol/L, the CHLORIDE [4] was 101 MEQ/L and the CHOLESTEROL [4] was 79.33 mg/dL. For the same compound, the “CREATINE PHOSPHOKINASE” value [4] was 148 u/L, the CREATININE [4] was 0.12 mg/dL and the “LACTATE DEHYDROGENASE” value [4] was 105 u/L. For the same compound, the LIPASE [4] was 9.33 u/L, the PHOSPHORUS [4] was 10 mg/dL and the POTASSIUM [4] was 6.12 MEQ/L. The SODIUM [4] was 145.77 MEQ/L, the “TOTAL BILIRUBIN” value [4] was 0.17 mg/dL and the “URIC ACID” value [4] was 1.47 mg/dL. The “ABSOLUTE BASOPHIL” value [5] was 0 CELLS/uL, the “ABSOLUTE EOSINOPHIL” value [5] was 0 CELLS/uL and the “ABSOLUTE LYMPHOCYTE” value [5] was 5111.33 CELLS/uL. The “ABSOLUTE MONOCYTE” value [5] was 0 CELLS/uL, the “ABSOLUTE SEGMENTED NEUTROPHIL” value [5] was 1222 CELLS/uL and the BASOPHIL [5] was 0%. The EOSINOPHIL [5] was 0%, the “ERYTHROCYTE COUNT” value [5] was 4.43 x10E6/uL and the HEMATOCRIT [5] was 26.73%. The HEMOGLOBIN [5] was 10.7 G/DL, the “LEUKOCYTE COUNT” value [5] was 6.33 x10E3/uL and the LYMPHOCYTE [5] was 76.67%. The “MEAN CORPUSCULAR HEMOGLOBIN” value [5] was 24.2 pg, the “MEAN CORPUSCULAR HEMOGLOBIN CONCENTRATION” value [5] was 40.03 G/DL and the “MEAN CORPUSCULAR VOLUME” value [5] was 60.47 fL. The NEUTROPHIL [5] was 23.33%, the “NUCLEATED RED BLOOD CELLS” value [5] was 0.67 /100WBC and the “PLATELET COUNT” value [5] was 1253.67 x10E3/uL. The “ALANINE AMINOTRANSFERASE” value [5] was 24 u/L, the ALBUMIN [5] was 2.23 G/DL and the “ALKALINE PHOSPHATASE” value [5] was 221.33 u/L. For the same compound, the “ASPARTATE AMINOTRANSFERASE” value [5] was 56 u/L, the “BLOOD UREA NITROGEN” value [5] was 17.33 mg/dL and the “CARBON DIOXIDE” value [5] was 31.67 mmol/L.
